Data published in patent US20110112114A1, “INHIBITORS OF SERINE PROTEASES, PARTICULARLY HEPATITIS C VIRUS NS3 PROTEASE” (priority 1999, published 2011).

Molecular target: HCV NS3 serine protease (Hepatitis C virus genotype 1a, UniProt P27958)
Assay: biochemical
Conditions: Ki from rate vs. [inhibitor] plots, Morrison tight binding competitive inhibition fit; with or without NS4A; 30 C, pH 7.8
Procedure: Peptides EDVVabuCSMSY (Abu designates—aminobutyric acid), […], […] and EDVV AbuC-p-nitroanilide was purchased from AnaSpec Inc. (San Jose, Calif.).
Cleavage reactions were quenched by the addition of an equal volume of a mixture of 10% TFA: acetonitrile (1:1) and activity was assessed on a reversed phase HPLC column (Rainin C18 Microsorb-MV, […], 4.6×250 mm; 0-50% acetonitrile, 0.1% TFA@3.33% min) using a Hewlett Packard 1050 instrument with auto-injection and diode array detection at 210 nm and 280 nm (where appropriate). Peptide elution fragments were collected and identified by mass spectrometry and N-terminal sequence analysis. Fragment identity and concentration was further verified by authentic, synthesized products. Initial rates of cleavage were determined at <20% substrate conversion and catalytic parameters were determined assuming Michaelis-Menten kinetics using the MultiFit program (Day Computing, Cambridge, Mass.).
Spectrophotometric assays were run in a 96-well microtiter plate at 30 C, using a SpectraMax 250 reader (Molecular Devices, Sunnyvale, Calif.) with kinetic capability. Cleavage of EDVV AbuC-p-nitroanilide (5A-pNA) substrate was performed with or without NS4A in the same buffer used for HPLC assays at 30 C, and pNA release was monitored at 405 nm. The extinction coefficient of p-nitroaniline is independent of pH at values of 5.5. and above [Tuppy, H., et al., Hoppe-Seyler's Z. Physiol. Chem., 329, pp. 278-288 (1962)]; Raybuck and Luong, unpublished observations).
Kinetic constants for the rapid equilibrium ordered bisubstrate reaction were determined from rate vs. [4A], [EDVV Abuc-pNa]data by non-linear least squares fitting to equation 1 [Morrison, J. F. Biochim. Biophys. Acta., 185, pp. 269-286 (1969)] as described in the text. Kii and Kis valkues for peptidyl inhibitors were determined from rate vs. [inhibitor], [substrate] data and fitting to the equation for mixed inhibition:
rate=Vmax[S]/{Km(1+[I]/Kis0+[S](1+[I]/Kii)}
The commercial program KinetAsyst (State College, Pa.) was used for both procedures. Ki values were calculated from rate vs. [inhibitor] plots by a nonlinear least squares fit of the data to the equation of Morrison for tight binding competitive inhibition [Morrison, J. F. Biochim. Biophys. Acta., 185, pp. 269-286 (1969)]. The KineTic program (BioKin Ltd) was used for this procedure.
Ki values are express in μM. Category “A” indicates <1 μM inhibition; category “B” indicates 1-100 μM inhibition; category “C” indicates >100 μM.

Chain of HCV NS3 serine protease (P27958 1027-1208): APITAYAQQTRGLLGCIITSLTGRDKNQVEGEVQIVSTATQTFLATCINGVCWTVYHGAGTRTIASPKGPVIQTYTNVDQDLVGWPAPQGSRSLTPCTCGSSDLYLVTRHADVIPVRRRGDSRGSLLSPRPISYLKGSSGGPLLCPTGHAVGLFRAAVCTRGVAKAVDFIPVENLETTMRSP

| Structure (SMILES) | Ki |
| --- | --- |
| CCC(C=O)NC(=O)c1cc(OCc2ccc(Cl)c(Cl)c2)ccc1NC(=O)C(NC(=O)C(NC(=O)c1cnccn1)C(C)C)C(C)C (stereo not shown) [Compound 107] | 1 to 100 µM |
| CCC(C=O)NC(=O)c1cc(OCc2ccccc2)ccc1NC(=O)C(NC(=O)c1c(O)ccc2ccccc12)C(C)C (stereo not shown) [Compound 104] | 1 to 100 µM |
| CCC(C=O)NC(=O)c1cc(OCc2ccccc2)ccc1N(C)C(=O)C(NC(=O)C(NC(=O)c1cnccn1)C(C)C)C(C)C (stereo not shown) [Compound 103] | 1 to 100 µM |
| CCC(C=O)NC(=O)c1cc(OCc2ccccc2)ccc1NC(=O)C(NC(=O)C(NC(=O)c1cnccn1)C(C)C)C(C)C (stereo not shown) [Compound 101] | 1 to 100 µM |
